SMILES strings stand for the structures.

`O=C1/C(=N/Nc2cccnc2)C(C(F)(F)F)=NN1c1ccccc1`: the melting point (in general, the temperature, or range, at which the solid turns liquid) turned out to be 161 °C. As for `CC(COc1ccccc1)NC(C)C(O)c1ccc(O)cc1` (stereo unspecified), the figure is 102 °C; as for `COc1ccc(Cl)c(OC)c1C(N)=O`, 156 to 158 °C; as for `COc1ccc(C2c3cc(OC)c(OC)cc3CCN2C(C)=O)cc1OC` (stereo unspecified), 164 to 165 °C.

`O=c1c(O)c(-c2ccc(O)c(O)c2)oc2cc(O)cc(O)c12`: the melting point is 316 °C. `Cc1ccccc1NN=C1C(=O)OC(C)(C)OC1=O`: the melting point was determined as 106 °C. `OCC(F)(F)C(F)F` returned a melting point of -15 °C.

Compound `COC(=O)C1=C(C)c2ccccc2C1` displayed a melting point of 66 °C. Then `O=C(Nc1ccc2nn(C3CCCCC3)nc2c1)c1ccccc1`, with 212 °C. Then `ClCCC(Cl)Cl`, with -59 °C; and `CC1(C)C2CCC(C2)C12COC(=O)N2` (single isomer, unassigned; (-)), with 227 to 229 °C. As for `CC(=O)OC(c1ccccc1)C(Cl)(Cl)Cl` (stereo unspecified), the figure is 87.5 °C; as for `O=C(O)C(O)n1ccnc1` (stereo unspecified), 275 °C.

Regarding `Cc1nnc(SCc2ccccc2)n1N=Cc1ccc(Cl)cc1`, the melting point lay within 120 to 121 °C. As for `COc1cc(OC)nc(NC(=O)NS(=O)(=O)c2cc(NC=O)ccc2C(=O)N(C)C)n1`, the figure is 194 °C; as for `CC(=O)Nc1ccc2c(c1)Cc1cc([N+](=O)[O-])ccc1-2`, 262 °C; as for `CC12CCC3C(CCC45OC4C(=O)C=CC35O)C1CCC2=O` (stereo unspecified), 201 to 203 °C. The compound `COC(=O)C(C#N)=c1sc(=C(C#N)C(=O)OC)s1` showed a melting point of 235 to 250 °C. Then `C(=C(c1ccccc1)c1ccccc1)c1ccccc1`, with 72.5 °C; and `NC(=O)C1=CN(C2OC(COP(=O)(O)OP(=O)(O)OCC3OC(n4cnc5c(N)ncnc54)C(O)C3O)C(O)C2O)C=CC1` (stereo unspecified), with 141 °C; and `OC(C(F)(F)F)(C(F)(F)F)C(O)(C(F)(F)F)C(F)(F)F`, with 18 to 20 °C. Then `COc1cc(C(c2c(O)cc(C)oc2=O)c2c(O)cc(C)oc2=O)ccc1O`, with 205 to 208 °C. Then `C/C(CC(C)c1ccc(C)cc1)=N\NC(N)=O` (stereo unspecified), with 146 °C; and `CC(c1cc2ccccc2s1)N(O)C(N)=O` (stereo unspecified), with 157 °C.

Turning to `O=C(O)CCCOc1ccccc1`, the melting point was determined as 63 °C. As for `O=C1OCCN1N=Cc1ccc([N+](=O)[O-])o1`, the figure is 255 °C; as for `O=[N+]([O-])c1ccc(-c2nn3c(C(F)(F)F)nnc3s2)cc1`, 213 °C; as for `Cc1ccc2sc(C(=O)O)cc2c1`, 222 to 223 °C. In the case of `O=S(=O)(O)CC(O)CN(CCO)CCO` (stereo unspecified), the melting point is 189 to 192 °C. Then `CCCCCCSc1nc2ccc(NC(=O)COc3ccc(Cl)cc3Cl)cc2s1`, with 105 °C; and `Cc1ccc(C=C(Oc2cccc(C)c2)c2nc3ccccc3s2)cc1`, with 137 to 139 °C; and `CCCCCCCC1CCCC(=O)O1` (stereo unspecified), with -12 °C. As for `N#CCc1ccc(OS(=O)(=O)c2ccc(Cl)cc2)cc1`, the figure is 95 to 97 °C; as for `COc1ccc(COC(C)=O)cc1`, 84 °C; as for `COC(=O)c1cc(O)nc(O)n1`, 244 °C. Then `Nc1ccc(C(F)(F)F)c(F)c1`, with 56 °C; and `Cc1c([N+](=O)[O-])c(C)c([N+](=O)[O-])c(C(C)(C)C)c1[N+](=O)[O-]`, with 110 °C; and `CCc1ccc(N2C(=O)C=CC2=O)cc1`, with 66 °C.

Take `NCS(=O)(=O)O`: the melting point fell in the range of 180 to 185 °C.

For the compound `N#Cc1ccc([N+](=O)[O-])cc1Cl`, the melting point is 83 to 84 °C. For the compound `c1ccc(C2Cc3ccccc32)nc1` (stereo unspecified), the melting point was 35 to 44 °C.
